Where two headings read alike, the source gives them in different places. Marks after values point to notes of the source that are not given here.
Assays:
EBOV in HeLa cells = assay type: cell-based, Ebola virus
[1] = in vivo, cited from earlier work
CYP2C19 = CYP2C19 (Homo sapiens, UniProt P33261); test: biochemical
[2] = tested on: Respiratory synactial virus; test: organism not typed; assay type: cell-based; design: SI50: unit not given beside the values
[3] = tested on: Ebola virus (Zaire strain); test: microbe, parasite or virus in culture; assay type: cell-based; design: SI50: unit not given beside the values
[4] = pH 7.4
T. cruzi = details: mouse, in vivo; cited from earlier work
in vivo [5] = details: BALB/c, mouse, ip
Yellow Fever virus = test: microbe, parasite or virus in culture; assay type: cell-based; design: SI50: unit not given beside the values
Influenza A virus H1N1 = test: microbe, parasite or virus in culture; assay type: cell-based; design: SI50: unit not given beside the values
in vitro [6] = details: mouse
Vaccinia Virus = test: microbe, parasite or virus in culture; assay type: cell-based; design: SI50 / SI90: unit not given beside the values
in vitro [7] = details: mouse, plasma, pH 7.4
CYP1A2 = CYP1A2 (Homo sapiens, UniProt P05177); test: biochemical
CYP1A2, sequence (P05177 whole entry): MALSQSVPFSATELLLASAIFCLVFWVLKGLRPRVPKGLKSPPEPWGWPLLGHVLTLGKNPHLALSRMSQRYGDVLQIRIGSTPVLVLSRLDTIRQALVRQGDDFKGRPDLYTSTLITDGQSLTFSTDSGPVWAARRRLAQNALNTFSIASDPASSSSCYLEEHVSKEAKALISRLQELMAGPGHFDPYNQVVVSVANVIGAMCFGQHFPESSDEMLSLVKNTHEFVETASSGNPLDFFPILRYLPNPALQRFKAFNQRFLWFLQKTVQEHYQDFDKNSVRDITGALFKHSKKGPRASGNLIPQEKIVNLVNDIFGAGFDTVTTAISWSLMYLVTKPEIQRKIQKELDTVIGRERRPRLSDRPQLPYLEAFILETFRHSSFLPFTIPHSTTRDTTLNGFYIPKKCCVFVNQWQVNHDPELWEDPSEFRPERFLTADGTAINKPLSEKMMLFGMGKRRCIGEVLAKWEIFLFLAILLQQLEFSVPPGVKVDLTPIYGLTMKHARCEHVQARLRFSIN

Herpes Simplex Virus 1 = test: microbe, parasite or virus in culture; assay type: cell-based; design: SI50 / SI90: unit not given beside the values
in vitro [8] = details: mouse, microsomes
Hepatitis C virus = test: microbe, parasite or virus in culture; assay type: cell-based; design: SI50 / SI90: unit not given beside the values
Rift Valley fever virus = test: microbe, parasite or virus in culture; assay type: cell-based; design: SI50: unit not given beside the values
Zika virus [9] = test: microbe, parasite or virus in culture; assay type: cell-based; design: SI50: unit not given beside the values
in vitro [10] = details: non-human primate, microsomes
in vitro [11] = details: dog
[12] = mouse, in vivo; cited from earlier work
in vivo [13] = details: both, BALB/c, mouse, ip
Poliovirus 3 = test: microbe, parasite or virus in culture; assay type: cell-based; design: SI50: unit not given beside the values
HeLa cells = details: cited from earlier work
in vitro [14] = details: guinea pig, microsomes
in vitro [15] = details: human, plasma, pH 7.4
in vitro [16] = details: African green monkey
cytokines and chemokines = tested on: cytokines and chemokines; design: species or system mice; details: mouse, in vivo
Chikungunya virus = test: microbe, parasite or virus in culture; assay type: cell-based; design: SI50: unit not given beside the values
Dengue Virus 2 = test: microbe, parasite or virus in culture; assay type: cell-based; design: SI50: unit not given beside the values
[17] = tested on: Norovirus (human norovirus, GT1 strain); test: microbe, parasite or virus in culture; assay type: cell-based; design: SI90: unit not given beside the values
physchem = details: 20 °C, pH 7.4, aqueous buffer, kinetic from dmso stock
MERS coronavirus = test: microbe, parasite or virus in culture; assay type: cell-based; design: SI50: unit not given beside the values
[18] = tested on: Venezuelian equine encephalitis virus; test: organism not typed; assay type: cell-based; design: SI50: unit not given beside the values
Zika virus [19] = test: microbe, parasite or virus in culture; assay type: cell-based; design: SI50: unit not given beside the values; remark: listed apart in the source
Hepatitis B virus = test: microbe, parasite or virus in culture; assay type: cell-based; design: SI50 / SI90: unit not given beside the values
[20] = Hepatitis B virus, HepG2 2.2.15

CYP2C19, sequence (P33261 whole entry): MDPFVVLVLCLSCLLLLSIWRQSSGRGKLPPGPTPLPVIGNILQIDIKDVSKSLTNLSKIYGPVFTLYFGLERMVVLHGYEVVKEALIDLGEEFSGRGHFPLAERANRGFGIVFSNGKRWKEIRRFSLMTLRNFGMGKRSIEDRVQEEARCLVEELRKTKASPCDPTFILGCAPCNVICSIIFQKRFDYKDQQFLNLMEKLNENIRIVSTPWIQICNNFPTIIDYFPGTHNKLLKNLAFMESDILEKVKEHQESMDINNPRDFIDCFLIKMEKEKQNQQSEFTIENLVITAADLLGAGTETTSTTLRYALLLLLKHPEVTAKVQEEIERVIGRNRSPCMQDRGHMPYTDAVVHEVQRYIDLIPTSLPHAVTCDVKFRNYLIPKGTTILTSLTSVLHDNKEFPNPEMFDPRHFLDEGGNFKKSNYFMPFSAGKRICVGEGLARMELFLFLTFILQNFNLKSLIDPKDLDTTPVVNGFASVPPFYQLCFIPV

COc1ccc2nc3cc(Cl)ccc3c(Nc3cc(CN4CCCC4)c(O)c(CN4CCCC4)c3)c2n1 [Pyronaridine, 4-[(7-Chloro-2-methoxybenzo[b][1, 5]naphthyridin-10-yl)amino]-2,6-bis(1-pyrrolidinylmethyl)phenol phosphate (1:4)]
SI (EBOV in HeLa cells): ~ 3
t1/2 ([1]; human, po, 400 mg): 10 days
volume of distribution ([1]; human, po, 400 mg): 41.2 L/kg
half-life elimination in whole blood ([1]; human): approximately 17 d
t1/2 in humans ([1]; human): 195 to 251 h
total radioactive half-life [1]: 33.5 days
IC50 (CYP2C19): > 50 µM
SI50 [2]: 0
EC50 ([2]; MA104): > 7.5 µM
SI50 [3]: 0
anti-EBOV activity (Zaire strain) [3]: lack of antiviral activity
EC50 ([3]; Zaire ebolavirus, Vero 76): > 1300 nM
abundance relative to parent drug (Mouse) [4]: 100%*
efficacy rate (T. cruzi): 85%
AUC(0-t) (in vivo [5]; female, 5 mg/kg): 257 ng·h/mL
Cmax (in vivo [5]; female, 5 mg/kg): 54 ng/mL
Tmax (in vivo [5]; female, 5 mg/kg): 4.98 min
AUC(0-t) (in vivo [5]; female, 25 mg/kg): 956 ng·h/mL
Cmax (in vivo [5]; female, 25 mg/kg): 160 ng/mL
AUC(0-t) (in vivo [5]; male, 5 mg/kg): 192 ng·h/mL
Cmax (in vivo [5]; male, 5 mg/kg): 44.4 ng/mL
AUC(0-t) (in vivo [5]; male, 25 mg/kg): 713 ng·h/mL
Cmax (in vivo [5]; male, 25 mg/kg): 115 ng/mL
AUC(0-inf) (in vivo [5]; male, 75 mg/kg): 33900 ng·h/mL
AUC(0-t) (in vivo [5]; male, 75 mg/kg): 33000 ng·h/mL
Cmax (in vivo [5]; male, 75 mg/kg): 982 ng/mL
half-life (in vivo [5]; male, 75 mg/kg): 6.08 days
SI50 (Yellow Fever virus): 1
EC50 (Yellow Fever virus; Yellow fever virus, Vero 76): 3.2 µM
SI50 (Influenza A virus H1N1): 1
EC50 (Influenza A virus H1N1; Influenza A virus, H1N1, MDCK): 3.2 µM
CC50 (in vitro [6]): > 40 µM
SI50 (Vaccinia Virus): <3
SI90 (Vaccinia Virus): <3
EC50 (Vaccinia Virus; Orthopoxvirus vaccinia, HFF): > 1200 nM
EC90 (Vaccinia Virus; Orthopoxvirus vaccinia, HFF): > 1200 nM
fraction unbound (in vitro [7]): 0.035
IC50 (CYP1A2): > 50 µM
SI50 (Herpes Simplex Virus 1): <1
SI90 (Herpes Simplex Virus 1): <1
EC50 (Herpes Simplex Virus 1; Human alphaherpesvirus 1, HFF): > 6 µM
EC90 (Herpes Simplex Virus 1; Human alphaherpesvirus 1, HFF): > 6 µM
half-life (in vitro [8]): 173 min
microsomal CLint (in vitro [8]): 4 µL/min/mg
SI50 (Hepatitis C virus): 1
SI90 (Hepatitis C virus): <1
EC50 (Hepatitis C virus; Hepatitis C virus, Huh-7): 780 nM
EC90 (Hepatitis C virus; Hepatitis C virus, Huh-7): 1710 nM
SI50 (Rift Valley fever virus): 1
EC50 (Rift Valley fever virus; Rift Valley fever virus, Vero 76): 3.2 µM
SI50 (Zika virus [9]): 1
EC50 (Zika virus [9]; Zika virus, Vero 76): 3.2 µM
half-life (in vitro [10]): 140 min
microsomal CLint (in vitro [10]): 4.9 µL/min/mg
CC50 (in vitro [11]): 3.2 µM
LD50 [12]: 1342 mg/kg
MTD (in vivo [13]): 100 mg/kg
SI50 (Poliovirus 3): 1
EC50 (Poliovirus 3; Enterovirus C, Vero 76): 3.2 µM
CC50 (HeLa cells): 3.1 µM
half-life (in vitro [14]): 44.4 min
microsomal CLint (in vitro [14]): 15.6 µL/min/mg
fraction unbound (in vitro [15]): 0.049
CC50 (in vitro [16]): 7.5 µM
IFN-α/β concentrations (cytokines and chemokines): below the level of detection
cytokine/chemokine levels over vehicle or naïve controls (cytokines and chemokines): did not elicit a statistically significant increase
SI50 (Chikungunya virus): 1
EC50 (Chikungunya virus; Chikungunya virus, Vero 76): 3.2 µM
SI50 (Dengue Virus 2): 1
EC50 (Dengue Virus 2; Dengue virus, Vero 76): 3.2 µM
SI90 [17]: 10
EC50 ([17]; Norovirus, GT1, HG23): 3.5 µM
EC90 ([17]; Norovirus, GT1, HG23): 9.7 µM
solubility (physchem): 168 µM
SI50 (MERS coronavirus): 1
EC50 (MERS coronavirus; Middle East respiratory syndrome-related coronavirus, Vero 76): 3.2 µM
SI50 [18]: 1.8
EC50 ([18]; Vero 76): 1800 nM
SI50 (Zika virus [19]): 1
EC50 (Zika virus [19]; Zika virus, Huh-7): 3.2 µM
SI50 (Hepatitis B virus): <1
SI90 (Hepatitis B virus): <1
EC50 (Hepatitis B virus; [20]): 4.52 µM
EC90 (Hepatitis B virus; [20]): > 100 µM
